Source: ChEMBL document CHEMBL1155285, “3D-QSAR CoMFA/CoMSIA models based on theoretical active conformers of HOE/BAY-793 analogs derived from HIV-1 protease inhibitor complexes” (Eur J Med Chem, 2009)
pIC50: −log10 of the molar value.

Target: Protease (Human immunodeficiency virus 1, UniProt Q9YQ12)
Assay: Inhibition of HIV1 protease expressed in Escherichia coli K12 assessed as inhibition of enzyme activity

Sequence of Protease (Q9YQ12 whole entry): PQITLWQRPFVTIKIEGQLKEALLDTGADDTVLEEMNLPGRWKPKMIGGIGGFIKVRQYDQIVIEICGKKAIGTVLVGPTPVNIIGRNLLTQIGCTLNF

| SMILES | pIC50 |
| --- | --- |
| CC(C)[C@H](NC(=O)OCc1ccccc1)C(=O)N[C@@H](Cc1ccccc1)[C@@H](O)[C@H](O)[C@H](Cc1ccccc1)NC(=O)[C@@H](NC(=O)OCc1ccccc1)C(C)C | 8.70 |
| CC(C)[C@H](NC(=O)[C@H](Cc1cccc2ccccc12)CS(=O)(=O)C(C)(C)C)C(=O)N[C@@H](CCc1ccncc1)[C@@H](O)[C@H](O)[C@H](CCc1ccncc1)NC(=O)[C@@H](NC(=O)[C@H](Cc1cccc2ccccc12)CS(=O)(=O)C(C)(C)C)C(C)C | 6.85 |
| CC(C)(C)S(=O)(=O)C[C@@H](Cc1cccc2ccccc12)C(=O)N[C@@H](CCC(=O)O)C(=O)N[C@@H](Cc1ccccc1)[C@@H](O)[C@H](O)[C@H](Cc1ccccc1)NC(=O)[C@H](CCC(=O)O)NC(=O)[C@H](Cc1cccc2ccccc12)CS(=O)(=O)C(C)(C)C | 9.13 |
| CC(C)[C@H](NC(=O)[C@@H](N)Cc1ccccc1)C(=O)N[C@@H](Cc1ccccc1)[C@@H](O)[C@H](O)[C@H](Cc1ccccc1)NC(=O)[C@@H](NC(=O)[C@@H](N)Cc1ccccc1)C(C)C | 9.07 |
| CC(C)(C)S(=O)(=O)C[C@@H](Cc1cccc2ccccc12)C(=O)N[C@H](C(=O)N[C@@H](Cc1ccccc1)[C@@H](O)[C@H](O)[C@H](Cc1ccccc1)NC(=O)[C@@H](NC(=O)[C@H](Cc1cccc2ccccc12)CS(=O)(=O)C(C)(C)C)C1CCCCC1)C1CCCCC1 | 8.77 |
| CC(C)[C@H](NC(=O)CCS(=O)(=O)C(C)(C)C)C(=O)N[C@@H](Cc1ccccc1)[C@@H](O)[C@H](O)[C@H](Cc1ccccc1)NC(=O)[C@@H](NC(=O)CCS(=O)(=O)C(C)(C)C)C(C)C | 8.40 |
| CC(C)[C@H](NC(=O)[C@H](Cc1cccc2ccccc12)NS(C)(=O)=O)C(=O)N[C@@H](Cc1ccccc1)[C@@H](O)[C@H](O)[C@H](Cc1ccccc1)NC(=O)[C@@H](NC(=O)[C@H](Cc1cccc2ccccc12)NS(C)(=O)=O)C(C)C | 9.10 |
| CC(C)[C@H](NC(=O)CCS(=O)(=O)c1ccncc1)C(=O)N[C@@H](Cc1ccccc1)[C@@H](O)[C@H](O)[C@H](Cc1ccccc1)NC(=O)[C@@H](NC(=O)CCS(=O)(=O)c1ccncc1)C(C)C | 8.40 |
| CC(C)[C@H](NC(=O)COc1cccc2ccccc12)C(=O)N[C@@H](Cc1ccccc1)[C@@H](O)[C@H](O)[C@H](Cc1ccccc1)NC(=O)[C@@H](NC(=O)COc1cccc2ccccc12)C(C)C | 7.42 |
| CC(C)[C@H](NC(=O)OCc1cccnc1)C(=O)N[C@@H](Cc1ccccc1)[C@@H](O)[C@H](O)[C@H](Cc1ccccc1)NC(=O)[C@@H](NC(=O)OCc1cccnc1)C(C)C | 8.89 |
| CC(C)[C@H](NC(=O)[C@@H](CC(=O)O)Cc1ccccc1)C(=O)N[C@@H](Cc1ccccc1)[C@@H](O)[C@H](O)[C@H](Cc1ccccc1)NC(=O)[C@@H](NC(=O)[C@@H](CC(=O)O)Cc1ccccc1)C(C)C | 8.85 |
| CC(C)[C@H](NC(=O)[C@H](Cc1cccc2ccccc12)CS(=O)(=O)C(C)(C)C)C(=O)N[C@@H](CCc1ccccc1)[C@@H](O)[C@H](O)[C@H](CCc1ccccc1)NC(=O)[C@@H](NC(=O)[C@H](Cc1cccc2ccccc12)CS(=O)(=O)C(C)(C)C)C(C)C | 6.44 |
| CCCCC[C@H](NC(=O)[C@@H](NC(=O)[C@H](Cc1cccc2ccccc12)CS(=O)(=O)C(C)(C)C)C(C)C)[C@@H](O)[C@H](O)[C@@H](CCCCC)NC(=O)[C@H](NC(=O)[C@H](Cc1cccc2ccccc12)CS(=O)(=O)C(C)(C)C)C(C)C | 9.00 |
| CC(C)(C)S(=O)(=O)C[C@@H](Cc1cccc2ccccc12)C(=O)N[C@H](C(=O)N[C@@H](Cc1ccccc1)[C@@H](O)[C@H](O)[C@H](Cc1ccccc1)NC(=O)[C@@H](NC(=O)[C@H](Cc1cccc2ccccc12)CS(=O)(=O)C(C)(C)C)C1CCCC1)C1CCCC1 | 9.52 |
| CC(C)(C)S(=O)(=O)C[C@@H](Cc1cccc2ccccc12)C(=O)N[C@@H](Cc1c[nH]cn1)C(=O)N[C@@H](Cc1ccccc1)[C@@H](O)[C@H](O)[C@H](Cc1ccccc1)NC(=O)[C@H](Cc1c[nH]cn1)NC(=O)[C@H](Cc1cccc2ccccc12)CS(=O)(=O)C(C)(C)C | 6.47 |
| CC(C)[C@H](NC(=O)[C@H](Cc1ccccc1)CS(=O)(=O)C(C)(C)C)C(=O)N[C@@H](Cc1ccccc1)[C@@H](O)[C@H](O)[C@H](Cc1ccccc1)NC(=O)[C@@H](NC(=O)[C@H](Cc1ccccc1)CS(=O)(=O)C(C)(C)C)C(C)C | 8.49 |
| CC(C)[C@H](NC(=O)[C@@H](O)Cc1ccccc1)C(=O)N[C@@H](Cc1ccccc1)[C@@H](O)[C@H](O)[C@H](Cc1ccccc1)NC(=O)[C@@H](NC(=O)[C@@H](O)Cc1ccccc1)C(C)C | 7.66 |
| CC(C)[C@H](NC(=O)[C@H](Cc1cccc2ccccc12)CS(=O)(=O)C(C)(C)C)C(=O)NC[C@@H](O)[C@H](O)CNC(=O)[C@@H](NC(=O)[C@H](Cc1cccc2ccccc12)CS(=O)(=O)C(C)(C)C)C(C)C | 8.66 |
| CC(C)[C@H](NC(=O)[C@H](Cc1ccccc1)NC(=O)[C@@H](O)C(O)[C@@H](O)C(O)O)C(=O)N[C@@H](Cc1ccccc1)[C@@H](O)[C@H](O)[C@H](Cc1ccccc1)NC(=O)[C@@H](NC(=O)[C@H](Cc1ccccc1)NC(=O)[C@@H](O)[C@@H](O)[C@@H](O)C(O)O)C(C)C (single isomer, unassigned) | 9.05 |
| CC(C)[C@H](NC(=O)N(C)Cc1ccccn1)C(=O)N[C@@H](Cc1ccccc1)C(O)C(O)[C@H](Cc1ccccc1)NC(=O)[C@@H](NC(=O)N(C)Cc1ccccn1)C(C)C (single isomer, unassigned) [A-76928] | 7.82 |

Further lines, results first:

| pIC50 | SMILES |
| --- | --- |
| 9.40 | CC(C)[C@H](NC(=O)[C@H](Cc1cccc2ccccc12)CS(=O)(=O)C(C)(C)C)C(=O)N[C@@H](Cc1cccc2c1OCO2)[C@@H](O)[C@H](O)[C@H](Cc1cccc2c1OCO2)NC(=O)[C@@H](NC(=O)[C@H](Cc1cccc2ccccc12)CS(=O)(=O)C(C)(C)C)C(C)C |
| 9.52 | CCC(C)[C@H](NC(=O)[C@H](Cc1cccc2ccccc12)CS(=O)(=O)C(C)(C)C)C(=O)N[C@@H](Cc1ccccc1)[C@@H](O)[C@H](O)[C@H](Cc1ccccc1)NC(=O)[C@@H](NC(=O)[C@H](Cc1cccc2ccccc12)CS(=O)(=O)C(C)(C)C)C(C)CC (stereo partly specified) |
| 7.74 | COc1ccc(C[C@H](NC(=O)[C@@H](NC(=O)[C@H](Cc2cccc3ccccc23)CS(=O)(=O)C(C)(C)C)C(C)C)[C@@H](O)[C@H](O)[C@H](Cc2ccc(OC)cc2OC)NC(=O)[C@@H](NC(=O)[C@H](Cc2cccc3ccccc23)CS(=O)(=O)C(C)(C)C)C(C)C)c(OC)c1 |
| 9.30 | CC(C)(C)[C@H](NC(=O)[C@H](Cc1cccc2ccccc12)CS(=O)(=O)C(C)(C)C)C(=O)N[C@@H](Cc1ccccc1)[C@@H](O)[C@H](O)[C@H](Cc1ccccc1)NC(=O)[C@@H](NC(=O)[C@H](Cc1cccc2ccccc12)CS(=O)(=O)C(C)(C)C)C(C)(C)C |
| 9.40 | CCC[C@H](NC(=O)[C@H](Cc1cccc2ccccc12)CS(=O)(=O)C(C)(C)C)C(=O)N[C@@H](Cc1ccccc1)[C@@H](O)[C@H](O)[C@H](Cc1ccccc1)NC(=O)[C@H](CCC)NC(=O)[C@H](Cc1cccc2ccccc12)CS(=O)(=O)C(C)(C)C |
| 8.54 | CC(C)[C@H](NC(=O)[C@H](Cc1cccc2ccccc12)CS(=O)(=O)C(C)(C)C)C(=O)N[C@@H](Cc1ccc(O)cc1)[C@@H](O)[C@H](O)[C@H](Cc1ccc(O)cc1)NC(=O)[C@H](NC(=O)[C@H](Cc1cccc2ccccc12)CS(=O)(=O)C(C)(C)C)C(C)C |
| 7.00 | CC(C)(C)S(=O)(=O)C[C@@H](Cc1cccc2ccccc12)C(=O)N[C@@H](CC(N)=O)C(=O)N[C@@H](Cc1ccccc1)[C@@H](O)[C@H](O)[C@H](Cc1ccccc1)NC(=O)[C@H](CC(N)=O)NC(=O)[C@H](Cc1cccc2ccccc12)CS(=O)(=O)C(C)(C)C |
| 9.52 | CC(O)[C@H](NC(=O)[C@H](Cc1cccc2ccccc12)CS(=O)(=O)C(C)(C)C)C(=O)N[C@@H](Cc1ccccc1)[C@@H](O)[C@H](O)[C@H](Cc1ccccc1)NC(=O)[C@@H](NC(=O)[C@H](Cc1cccc2ccccc12)CS(=O)(=O)C(C)(C)C)C(C)O (stereo partly specified) |
| 9.10 | CC(C)[C@H](NC(=O)[C@H](Cc1ccncc1)CS(=O)(=O)C(C)(C)C)C(=O)N[C@@H](Cc1ccccc1)[C@@H](O)[C@H](O)[C@H](Cc1ccccc1)NC(=O)[C@@H](NC(=O)[C@H](Cc1ccncc1)CS(=O)(=O)C(C)(C)C)C(C)C |
| 9.52 | CC(C)[C@H](NC(=O)[C@H](Cc1cccc2ccccc12)CS(=O)(=O)C(C)(C)C)C(=O)N[C@@H](Cc1ccccc1)[C@@H](O)[C@H](O)[C@H](Cc1ccccc1)NC(=O)[C@@H](NC(=O)[C@H](Cc1cccc2ccccc12)CS(=O)(=O)C(C)(C)C)C(C)C |
| 9.47 | COc1ccc(C[C@H](CS(=O)(=O)C(C)(C)C)C(=O)N[C@H](C(=O)N[C@@H](Cc2ccccc2)[C@@H](O)[C@H](O)[C@H](Cc2ccccc2)NC(=O)[C@@H](NC(=O)[C@H](Cc2ccc(OC)cc2)CS(=O)(=O)C(C)(C)C)C(C)C)C(C)C)cc1 |
